Where only a bound is given, the exact number is not on record here.

`CC(=O)OCC1OC(n2ccc3c(F)cccc32)C(OC(C)=O)C(OC(C)=O)C1OC(C)=O` (stereo not drawn) gave a melting point of 132 to 135 °C.

In the case of `O=CNNc1ccc(NC(=O)c2cccc(N=C=S)c2)cc1`, the melting point is above 290 °C.

`COCn1cncc1C[C@H](NC(=O)C(Cc1cccc2ccccc12)Cc1cccc2ccccc12)C(=O)OC`: the melting point was in the range of 182 to 185 °C.

`O=C(O)Cc1ccc(-n2cccn2)c(Br)c1` registered a melting point of 100 to 101 °C.

For `COC(=O)c1snc(-c2cccc(C)c2)c1C(=O)OC`, the melting point fell in the range of 53 to 54.5 °C.

`Cc1cccc(NC(=O)OCc2ccccn2)c1CNc1cccn2c(C)c(C)nc12`: the melting point lay in the range of 163 to 165 °C.

For `CC(C#CCOc1cccc(Oc2ccccn2)c1)N(O)C(N)=O` (stereo not drawn), the melting point was 117 to 119 °C.

With `CCOC(=O)Cc1ccc(Cc2nc3c(F)c(F)cc(F)c3s2)cc1`, the melting point was in the range of 75 to 77 °C.

The molecule `O=C(c1ccc(O)cc1)c1c(-c2ccccc2)oc2ccc([N+](=O)[O-])cc12` came in with a melting point of 207 °C.

Regarding `C=CCN1CC(=O)C(C#N)=C1N`, the melting point lay in the range of 275 to 278 °C.

For `COc1ccccc1Oc1c(NS(=O)(=O)c2ccc(C(C)(C)C)cc2)nc(-c2ncccn2)nc1OCCOc1ccc(Br)cc1`, the melting point lay in the range of 251 to 256 °C.

`CCC(CC)Nc1cc(C)nc2c1nnn2-c1c(C)cc(C)cc1C` gave a melting point of 131 to 133 °C.

In turn, `S=C1CN=C(c2ccccc2Cl)c2cc(CCc3ccccc3)sc2N1` had a melting point of 175 to 176 °C.

`CN1CCN(c2cc3c(cc2F)c(=O)c(C(=O)O)cn3CCF)CC1` displayed a melting point of 256 to 258 °C.

With `Cn1cc(S(N)(=O)=O)c(=O)c2ccc(Cl)cc21`, the melting point lay within 235 to 237 °C.

In the case of `CC(O)c1cc(C#C[Si](C)(C)C)c(O)c(Cl)n1` (stereo not drawn), the melting point was in the range of 97 to 98 °C.

In turn, `CONC(=N)c1ccc(-c2ccc(-c3ccc(-c4ccc(C(=N)NOC)cc4)o3)o2)cc1` gave a melting point of 258 to 259 °C.

`Cc1c[nH]c2c(=O)n(CC(=O)NC3CC(=O)OC3OCc3ccccc3)cnc12` (stereo not drawn) returned a melting point of 240 to 244 °C.

For `Cc1nnc(-c2cnc3occ(-c4ccc(S(C)(=O)=O)cc4)c3c2)o1`, the melting point lay in the range of 251 to 252 °C.

Regarding `OCc1ccc2cnn(-c3ccnc(N[C@H]4CC[C@H](O)CC4)n3)c2c1`, the melting point was 216 to 218 °C.

`CN(C)C(=O)Cc1c[nH]c2ccc(I)cc12` gave a melting point of 195 to 200 °C.

On to `COC1=C(OC)C(=O)C2=C(CCC(CCOc3cccnc3)CC2)C1=O`, for which the melting point is 80 to 82 °C.

Molecule `CSc1nc(C)c(CCCl)c(=O)n1C` came in with a melting point of 135 to 137 °C.

For `CC(C)=Nc1c(-c2ccccc2)[nH]c(C)c1C(N)=O`, the melting point fell in the range of 221 to 223 °C.

Regarding `O=C(Nc1ccccc1)OCC1CSC2=C(O1)c1ccccc1C(=O)C2=O` (stereo not drawn), the melting point fell in the range of 250 to 252 °C.

`CCOC(=O)C(C#N)=NOC(=O)OCC(Cl)(Cl)Cl` returned a melting point of 51 to 53 °C.

As for `COc1ccc2c(c1)C13CCN(C#N)C(C2)C1CC(C)C(=O)C3` (stereo not drawn), the melting point was 188 to 192 °C.

In the case of `CCCCCCCNC(=O)Oc1ccc2c(c1)c(C)cn2NCCCc1ccncc1F`, the melting point lay in the range of 90 to 93 °C.

Consider `Cc1c(C(=O)O)oc2cc(S)ccc12`, for which the melting point fell in the range of 230 to 232 °C.

In turn, `CN(C)C(=O)c1ccc([N+](=O)[O-])cc1Cl` registered a melting point of 116 to 117 °C.

Molecule `O=c1[nH]c2cc(Cl)cc(Cl)c2c(=O)n1Cc1cccc(Cl)c1` yielded a melting point of 276 to 279 °C.

On to `CCCCCCc1ccc2c3ccc(CO)cc3n(C)c2c1`, for which the melting point fell in the range of 90 to 91 °C.

In turn, `CC(Oc1ccc2nc(-c3ccccc3OC(N)=O)sc2c1)c1ccccc1C(F)(F)F` (stereo not drawn) registered a melting point of 200 to 205 °C.

In turn, `CC(=O)Oc1ccc(Cn2ncc(-c3ccc(S(C)(=O)=O)cc3)c(-c3ccc(F)cc3)c2=O)cc1` had a melting point of 172 to 174 °C.

Molecule `COc1cc(OC)c(-c2nc(C)c(-c3cccnc3)[nH]2)cc1Br` gave a melting point of 246 to 248 °C.

`CCOC(=O)COn1ccncc1=O` had a melting point of 98 to 100 °C.

`COc1cccc(OC2COc3ccc(OCc4ccc5ccccc5n4)cc3C2O)c1` (stereo not drawn) registered a melting point of 128 to 129 °C.

In the case of `COc1cc(Nc2c(C#N)cnc3cc(C#CCCN4CCN(C)CC4)c(OC)cc23)c(Cl)cc1Cl`, the melting point is 165 to 167 °C.

In the case of `CCCc1c(OCCOc2ccccc2C(=O)NCCCCc2cccnc2)ccc(C(C)=O)c1O`, the melting point fell in the range of 77 to 80 °C.

`NC(=O)c1sc2cncc(Oc3ccc(Cl)cc3)c2c1N` registered a melting point of 202 to 204 °C.

Molecule `COc1cc(CCCn2cncn2)ccc1OCc1coc(/C=C/c2ccccc2)n1` showed a melting point of 113 to 114 °C.

For `CC(C)[C@H](NC(=O)CN)c1nc2c(C(F)(F)F)cccc2c(O)c1C(=O)Nc1nccs1`, the melting point is 230 °C.

In turn, `CC[C@H](C)[C@H](NC(=O)N(C)Cc1ccccn1)C(=O)N[C@@H](Cc1ccccc1)C[C@H](O)[C@H](Cc1ccccc1)NC(=O)OCc1cncs1` showed a melting point of 64 to 67 °C.

The molecule `CC1(C)Oc2ccsc2C(N2CCCCC2=O)C1O` (stereo not drawn) had a melting point of 151 to 152 °C.

As to `COC(=O)c1ccnc(NC(=O)C(C)CSC(C)=O)c1` (stereo not drawn), the melting point lay within 105 to 106 °C.

`CCCC(=O)Nc1cc(NC(=O)CCC)c2ccc(C)nc2c1OC(=O)CCC`: the melting point lay within 195 to 200 °C.

In the case of `COC(=O)C(C)Oc1ccc(Oc2cnc3ccccc3n2)cc1` (stereo not drawn), the melting point lay in the range of 110 to 115 °C.

Regarding `O=C(CCc1ccccc1)N[C@H](Cc1ccc(C(F)(F)F)cc1)[C@@H](O)c1ccc(Cl)nc1` (racemic), the melting point lay within 149 to 150 °C.

With `CCC1=NNC(C)=C(C(=O)OCc2ccccc2)C1c1cccc([N+](=O)[O-])c1` (stereo not drawn), the melting point was found to be 154 °C.

Regarding `CCCn1c(=O)n2c(-c3ccccc3)nnc2c2[nH]cnc21`, the melting point is 273 to 280 °C.

`COc1ccc(CCl)cc1OC` yielded a melting point of 50 to 51 °C.

Turning to `Nc1nccc2occc12`, the melting point lay in the range of 122 to 124 °C.

Molecule `COc1ccc(-n2c(-c3ccc(SC)cc3)nc(SC)c(C#N)c2=O)cc1` had a melting point of 214 to 216 °C.

With `NCCNCCNc1ccc2c3c(nn2CCO)-c2c(O)ccc(O)c2C(=O)c13`, the melting point lay in the range of 185 to 190 °C.

Regarding `CSC(SC)C1(O)O[C@H](COCc2ccccc2)[C@@H](OCc2ccccc2)[C@H](OCc2ccccc2)[C@H]1OCc1ccccc1` (stereo partly drawn), the melting point is 96 to 97 °C.

The molecule `COC(=O)c1ccccc1S(=O)(=O)NC(=O)Nc1nc(C)c(C)c(C)n1` returned a melting point of 152 to 161 °C.

Turning to `O=C(N[C@@H](Cc1ccc(NC(=O)c2c(Cl)cccc2Cl)cc1)C(=O)O)OCC1c2ccccc2-c2ccccc21`, the melting point lay in the range of 230 to 234 °C.

`Cc1ccc(Cn2nc(C(=O)NC3C(C)CCCC3C)cc2-c2ccc(Cl)c(Cl)c2)cc1Cl` (stereo not drawn) registered a melting point of 59.9 °C.

The molecule `OCCN1CCN(c2cc(Cl)nc(-c3ccccc3)n2)CC1` displayed a melting point of 103 to 105 °C.

In turn, `C(=C\c1cc(/C=C/c2ccc3cc[nH]c3c2)n[nH]1)/c1cccc(OCc2ccccn2)c1` registered a melting point of 193 to 195 °C.

The molecule `CCC(C)C(NC(=O)C(C)N(C(=O)OC(C)(C)C)C1CCCCC1)C(=O)NC(CC1CCCCC1)C(O)C(O)CC(C)C` (stereo not drawn) yielded a melting point of 181 to 182 °C.

On to `O=C(C1COc2ccccc2O1)N1CCNCC1` (stereo not drawn), for which the melting point lay in the range of 84 to 85 °C.

`CS(=O)(=O)c1ccc(-c2cnn(-c3cccc(Br)c3)c(=O)c2Oc2ccc(F)cc2)cc1` showed a melting point of 208 to 210 °C.

For `O=C(O)C1Cc2c(c(Cl)cc3c(-c4ccccc4Cl)noc23)O1` (stereo not drawn), the melting point is 220 to 222 °C.

The molecule `O=c1cc(C(F)(F)F)ccn1-c1c(Cl)cc(CF)cc1Cl` gave a melting point of 121 to 122 °C.

On to `COc1cc2c(cc1OC)[C@H]([C@H](O)c1ccccc1)OC2=O`, for which the melting point lay within 113 to 115 °C.

Take `Clc1ccc(N2CCN(Cc3cn4cc(Cl)ccc4n3)CC2)c(Cl)c1`: the melting point lay within 136 to 138 °C.

Consider `N#Cc1nn(-c2c(Cl)cc(C(F)(F)F)cc2Cl)cc1SC(F)(F)F`, for which the melting point lay in the range of 126 to 128 °C.

`CCCCc1sc(C(=O)O)c2c1-c1nn(C)cc1CC2`: the melting point lay in the range of 244 to 245 °C.

Take `CSc1nc(N)c(N)c(=O)n1C`: the melting point was in the range of 211 to 212 °C.

Molecule `C=CCOc1ccccc1OCCOS(C)(=O)=O` displayed a melting point of 61 to 63 °C.

In turn, `O=C(N[C@H]1CC[C@H](CCN2CCN(c3nccc4c3CCO4)CC2)CC1)c1ccc(F)cc1` gave a melting point of 210 °C.

`COc1ccc(-c2ccccc2)cc1NC(=S)c1ncc[nH]1` came in with a melting point of 223 to 226 °C.

`CCOC(=O)c1c(Cl)nc2cc(F)c(C)cc2c1CCl` had a melting point above 250 °C.

For the molecule `Cc1cccc2nc3c(c(C)nn3-c3ccccn3)c(Cl)c12`, the melting point fell in the range of 167 to 169 °C.

The molecule `O=c1oc2cc(O)c(F)cc2s1` showed a melting point of 141 to 143 °C.

As for `COc1ccc(CCNC(=S)Cc2nnnn2C)cc1OC`, the melting point was 90 to 92 °C.

Turning to `Cc1nc2ccccn2c(=O)c1CCN1CCN(c2cccc(Cl)c2)CC1`, the melting point fell in the range of 112 to 113 °C.

`N#Cc1cccc(C2=Nc3cc(CO)c(-c4ccccc4F)cc3NC(=O)C2)c1` came in with a melting point of 90 to 91 °C.

Molecule `N#CCOc1cccc2c1c1cccc3c1n2C(c1ccccc1)CO3` (stereo not drawn) showed a melting point of 61 °C.

`[N-]=[N+]=CC(=O)C(Cc1ccc(F)cc1)NC(=O)OCc1ccccc1` (racemic) returned a melting point of 97 °C.

Turning to `CCC1(C)SC(=NOC(=O)N(C)C(C)=O)N=C1C` (stereo not drawn), the melting point was in the range of 98 to 101 °C.

Turning to `COC(=O)C1C=CCn2c(=O)n(CCl)c(=O)n21` (stereo not drawn), the melting point lay within 164 to 165 °C.

As to `CCCCOC(=O)COc1cc(F)c([N+](=O)[O-])cc1[N+](=O)[O-]`, the melting point lay within 113 to 115 °C.

Consider `CCCCCCCN(CCO)c1ccc2c(c1)Oc1cc(=C(C#N)C#N)c3ccccc3c1=N2`, for which the melting point was in the range of 155 to 157 °C.

Molecule `COCCNc1nccc(Oc2ccc(NC(=O)c3cc(F)cc(N4CCCCC4)c3)c3ccccc23)n1` had a melting point of 87 to 88 °C.

Consider `CC(=O)c1cncc(OC2SCC(O)C(O)C2O)c1` (stereo not drawn), for which the melting point was found to be 209 °C.

The molecule `COc1ccccc1-c1cccn2nc(Nc3ccc4c(c3)CCN(CCS(C)(=O)=O)CC4)nc12` gave a melting point of 91 to 94 °C.
